Measured values taken from ChEMBL document CHEMBL2062504, “Diterpenoid alkaloids from the lateral root of Aconitum carmichaelii” (J Nat Prod, 2012).
The source made the active and inactive calls.

What was measured:
Bel-7402 = test: Cytotoxicity against human Bel7402 cells at 10 uM after 96 hrs by MTT assay; assay type: functional, cell-based
A549 = test: Cytotoxicity against human A549 cells at 10 uM after 96 hrs by MTT assay; assay type: functional, cell-based
HCT-8 = test: Cytotoxicity against human HCT8 cells at 10 uM after 96 hrs by MTT assay; assay type: functional, cell-based
Liver microsomes = test: Antioxidant activity in rat liver microsome assessed as inhibition of FeSO4-induced lipid peroxidation at 10 uM incubated for 15 mins prior to FeSO4-challenge measured after 15 mins by modified thiobarbituric acid method; assay type: functional
BGC-823 = test: Cytotoxicity against human BGC823 cells at 10 uM after 96 hrs by MTT assay; assay type: functional, cell-based
WB-F344 = test: Hepatoprotective activity against DL-galactosamine-induced cell death in rat WB-F344 cells at 10 uM incubated for 1 hr prior to DL-galactosamine-challenge measured after 24 hrs by MTT assay; assay type: functional, cell-based
KETR3 = test: Cytotoxicity against human Ketr3 cells at 10 uM after 96 hrs by MTT assay; assay type: functional, cell-based
[1] = system: Peritoneal macrophage cell; test: Antiinflammatory activity in mouse peritoneal macrophages assessed as inhibition of nitric oxide production at 10 uM; assay type: functional, cell-based
MCF7 = test: Cytotoxicity against human MCF7 cells at 10 uM after 96 hrs by MTT assay; assay type: functional, cell-based

C=C1C[C@]23C4[C@@H](OC(=O)[C@@H](C)CC)[C@H]1[C@@H](O)[C@H]2[C@]12C[C@@H](OC(=O)CC)C[C@]5(C)[C@H]1[C@H]([C@@H]3O)[N+](C)([C@H]42)[C@H]5O
inactive: Activity (Bel-7402) | Activity (A549) | Activity (HCT-8) | inhibition (Liver microsomes) | Activity (BGC-823) | Activity (WB-F344) | Activity (KETR3) | inhibition [1] | Activity (MCF7)

CCN1C[C@]2(COC)[C@H](O)C[C@H](OC)[C@]34C1[C@H]([C@H](OC)[C@H]23)[C@]1(OC(C)=O)[C@H]2[C@@H](OC(=O)c3ccccc3)[C@](O)(C[C@]24O)[C@@H](OC)[C@@H]1O
inactive: Activity (Bel-7402) | Activity (A549) | Activity (HCT-8) | inhibition (Liver microsomes) | Activity (BGC-823) | Activity (WB-F344) | Activity (KETR3) | inhibition [1] | Activity (MCF7)

CCN1C[C@]2(COC)CC[C@H](O)[C@]34C1[C@H]([C@H](OC)[C@H]23)[C@]1(O)[C@H]2[C@@H](OC(=O)c3ccccc3)[C@H](C[C@H]24)[C@@H](OC)[C@@H]1O
inactive: Activity (Bel-7402) | Activity (A549) | Activity (HCT-8) | inhibition (Liver microsomes) | Activity (BGC-823) | Activity (WB-F344) | Activity (KETR3) | inhibition [1] | Activity (MCF7)

C=C1C[C@@]23C[C@H]4[C@@H]5[C@@]6(C)C[C@H](OC(=O)CC)C[C@@]57[C@@H]2[C@H](O)[C@@H]1[C@H](OC(=O)[C@@H](C)CC)C3[C@H]7[N+]4(C)[C@H]6O
inactive: Activity (Bel-7402) | Activity (A549) | Activity (HCT-8) | inhibition (Liver microsomes) | Activity (BGC-823) | Activity (WB-F344) | Activity (KETR3) | inhibition [1] | Activity (MCF7)

COC[C@]12CN(C)C3[C@@H]4[C@H](OC)[C@H]1[C@@]3([C@@H](OC)C[C@H]2O)[C@@H]1C[C@@]2(O)[C@H](OC(=O)c3ccccc3)[C@@H]1[C@]4(O)[C@@H](OC(C)=O)[C@@H]2OC
inactive: Activity (Bel-7402) | Activity (A549) | Activity (HCT-8) | inhibition (Liver microsomes) | Activity (BGC-823) | Activity (WB-F344) | Activity (KETR3) | inhibition [1] | Activity (MCF7)

CCN1C[C@]2(COC)CC[C@H](OC)[C@]34C1[C@H](C[C@H]23)[C@]1(O)[C@H]2[C@@H](OC(=O)c3ccccc3)[C@](O)(C[C@H]24)[C@@H](OC)[C@@H]1O
inactive: Activity (Bel-7402) | Activity (A549) | Activity (HCT-8) | inhibition (Liver microsomes) | Activity (BGC-823) | Activity (WB-F344) | Activity (KETR3) | inhibition [1] | Activity (MCF7)

COC[C@]12CN(C)C3[C@@H]4[C@H](OC)[C@H]1[C@@]3([C@@H](OC)C[C@H]2O)[C@]1(O)C[C@@]2(O)[C@H](OC(=O)c3ccccc3)[C@@H]1[C@]4(OC)[C@@H](O)[C@@H]2OC (stereo in doubt; 7)
inactive: Activity (Bel-7402) | Activity (A549) | Activity (HCT-8) | inhibition (Liver microsomes) | Activity (BGC-823) | Activity (WB-F344) | Activity (KETR3) | inhibition [1] | Activity (MCF7)

CCN1C[C@]2(COC)CC[C@H](OC)[C@]34C1[C@H](C[C@H]23)[C@]1(O)[C@H]2[C@@H](OC(=O)c3ccccc3)[C@H](C[C@H]24)[C@@H](OC)[C@@H]1O
inactive: Activity (Bel-7402) | Activity (A549) | Activity (HCT-8) | inhibition (Liver microsomes) | Activity (BGC-823) | Activity (WB-F344) | Activity (KETR3) | inhibition [1] | Activity (MCF7)

COC[C@@]12CC[C@H](OC)[C@]34C([C@H]([C@H](OC)[C@H]13)[C@]1(OC(C)=O)[C@H]3[C@@H](OC(=O)c5ccccc5)[C@](O)(C[C@]34O)[C@@H](OC)[C@@H]1O)N(C)C2
inactive: Activity (Bel-7402) | Activity (A549) | Activity (HCT-8) | inhibition (Liver microsomes) | Activity (BGC-823) | Activity (WB-F344) | Activity (KETR3) | inhibition [1] | Activity (MCF7)

COC[C@]12CN(C)C3[C@@H]4[C@H](OC)[C@H]1[C@@]3([C@@H](OC)C[C@H]2O)[C@]1(O)C[C@@]2(O)[C@H](OC(=O)c3ccccc3)[C@@H]1[C@]4(O)[C@@H](O)[C@@H]2OC
inactive: Activity (Bel-7402) | Activity (A549) | Activity (HCT-8) | inhibition (Liver microsomes) | Activity (BGC-823) | Activity (WB-F344) | Activity (KETR3) | inhibition [1] | Activity (MCF7)

CCN1C[C@]2(COC)[C@H](O)C[C@H](OC)[C@]34C1[C@H]([C@H](OC)[C@H]23)[C@@]1(OC(C)=O)C[C@H](OC)[C@@]2(O)C[C@]4(O)[C@@H]1[C@H]2OC(=O)c1ccccc1
inactive: Activity (Bel-7402) | Activity (A549) | Activity (HCT-8) | inhibition (Liver microsomes) | Activity (BGC-823) | Activity (WB-F344) | Activity (KETR3) | inhibition [1] | Activity (MCF7)

CCN1C[C@]2(COC)CC[C@H](OC)[C@]34C1[C@H]([C@H](OC)[C@H]23)[C@]1(OC(C)=O)[C@H]2[C@@H](OC(=O)c3ccccc3)[C@](O)(C[C@H]24)[C@@H](OC)[C@@H]1O
inactive: Activity (Bel-7402) | Activity (A549) | Activity (HCT-8) | inhibition (Liver microsomes) | Activity (BGC-823) | Activity (WB-F344) | Activity (KETR3) | inhibition [1] | Activity (MCF7)

COC[C@]12CN(C)C3[C@@H]4[C@H](OC)[C@H]1[C@@]3([C@@H](OC)C[C@H]2O)[C@]1(O)C[C@@]2(O)[C@H](OC(=O)c3ccccc3)[C@@H]1[C@]4(OC)[C@@H](O)[C@@H]2OC (stereo in doubt; 8)
inactive: Activity (Bel-7402) | Activity (A549) | Activity (HCT-8) | inhibition (Liver microsomes) | Activity (BGC-823) | Activity (WB-F344) | Activity (KETR3) | inhibition [1] | Activity (MCF7)

COC[C@]12CN(C)C3[C@@H]4[C@H](OC)[C@H]1[C@@]3([C@@H](OC)C[C@H]2O)[C@@H]1C[C@@]2(O)[C@H](OC(=O)c3ccccc3)[C@@H]1[C@]4(O)[C@@H](O)[C@@H]2OC
inactive: Activity (Bel-7402) | Activity (A549) | Activity (HCT-8) | inhibition (Liver microsomes) | Activity (BGC-823) | Activity (WB-F344) | Activity (KETR3) | inhibition [1] | Activity (MCF7)

COC[C@]12CN(C)C3[C@@H]4[C@H](OC)[C@H]1[C@@]3([C@@H](OC)C[C@H]2O)[C@]1(O)C[C@@]2(O)[C@H](OC(=O)c3ccccc3)[C@@H]1[C@]4(O)[C@@H](O)[C@H]2OC
inactive: Activity (Bel-7402) | Activity (A549) | Activity (HCT-8) | inhibition (Liver microsomes) | Activity (BGC-823) | Activity (WB-F344) | Activity (KETR3) | inhibition [1] | Activity (MCF7)

CCN1C[C@]2(COC)CC[C@H](OC)[C@]34C1[C@H]([C@H](OC)[C@H]23)[C@]1(OC)[C@H]2[C@@H](OC(=O)c3ccccc3)[C@](O)(C[C@H]24)[C@@H](OC)[C@@H]1O (single isomer, unassigned; (-))
inactive: Activity (Bel-7402) | Activity (A549) | Activity (HCT-8) | inhibition (Liver microsomes) | Activity (BGC-823) | Activity (WB-F344) | Activity (KETR3) | inhibition [1] | Activity (MCF7)

CCN1C[C@]2(COC)CC[C@H](O)[C@]34C1[C@H]([C@H](OC)[C@H]23)[C@]1(O)[C@H]2[C@@H](OC(=O)/C=C/c3ccccc3)[C@H](C[C@H]24)[C@@H](OC)[C@@H]1O
inactive: Activity (Bel-7402) | Activity (A549) | Activity (HCT-8) | inhibition (Liver microsomes) | Activity (BGC-823) | Activity (WB-F344) | Activity (KETR3) | inhibition [1] | Activity (MCF7)

C=C1C[C@]23C[C@H]4[C@@H]5[C@@]6(C)C[C@H](OC(=O)c7ccccc7)[C@@H](OC(C)=O)[C@]57C(C2[C@@H](O)[C@H]1[C@@H](OC(C)=O)[C@H]37)N4[C@H]6O
inactive: Activity (Bel-7402) | Activity (A549) | Activity (HCT-8) | inhibition (Liver microsomes) | Activity (BGC-823) | Activity (WB-F344) | Activity (KETR3) | inhibition [1] | Activity (MCF7)

CCN1C[C@]2(COC)CC[C@H](OC)[C@]34C1[C@H]([C@H](OC)[C@H]23)[C@@]1(O)C[C@H](OC)[C@@]2(O)C[C@@H]4[C@@H]1[C@H]2OC(=O)c1ccccc1
inactive: Activity (Bel-7402) | Activity (A549) | Activity (HCT-8) | inhibition (Liver microsomes) | Activity (BGC-823) | Activity (WB-F344) | Activity (KETR3) | inhibition [1] | Activity (MCF7)
